In patent US20160029626A1 (priority 2011, published 2016):
Entries after “also recorded” stand apart in the source; their conditions may differ.

How the values were obtained:
[1] = system: X. fastidiosa biofilm; format: cell-based, Xylella fastidiosa 9a5c strain
[2] = system: X. fastidiosa; format: cell-based, Xylella fastidiosa 9a5c strain
[3] = system: biofilm of X. fastidiosa; format: cell-based, Xylella fastidiosa 9a5c strain
[4] = system: citrus variegated chlorosis (CVC), X. fastidiosa; design: species or system orange pear (Citrus sinenses); conditions: in vivo
[5] = system: X. fastidiosa; design: species or system orange pear (Citrus sinenses); conditions: in vivo
[6] = system: X. fastidiosa; design: species or system orange pear (Citrus sinenses); conditions: in vivo; remark: listed apart in the source
[7] = Degradation of NAC in Hoagland nutrient solution in greenhouse (without plants), HPLC; format: physicochemical; conditions: 187.5 mg/mL expected without degradation
Procedure: A study to check the degradation of N-acetyl L-cysteine (NAC) was also performed in a Hoagland nutrient solution under the same conditions in which the in vivo experiment was carried out. The nutrient solution of Hoagland was prepared and placed in the receiving party of potted Leonard (without plants), as well as 600 mg N-acetyl L-cysteine (NAC).

[8] = system: orange pear plants; assay: Plant development under NAC treatment (phytotoxicity); format: in vivo, orange pear (Citrus sinenses)
Procedure: 2. Experiments using NAC on infected plants: An analysis was performed with quantitative PCR, as described in sequence, to quantify the initial population of bacteria in plants. The plants were then transferred to Leonard pots, constructed from 750 mL glass bottles, cut and painted with metallic paint to prevent light penetration. Previously autoclaved, vermiculite and sand were added to the top of the vessel and in the collecting part, a Hoagland Arnon (1950) nutrient solution (FIG. 8). Two experiments were performed with different doses of N-acetyl L-cysteine (NAC), both conducted in a greenhouse (see table 1 below).
The first of the experiments was a pilot, in which 120 mg and 600 mg of N-acetyl L -cysteine (NAC) were added to 250 mL of Hoagland & Arnon (1950). Control plants were also maintained without addition of N-acetyl L-cysteine (NAC). The second test had plants to which were added 120 mg, 600 mg and 1500 mg L30 N-acetyl cysteine (NAC) along with 250 mL of nutrient solution of Hoagland & Arnon (1950) and control experiments without the addition of the compound. 4 biological repetitions were performed for each treatment in each experiment.

[9] = system: Streptococcus epidermidis, and Haemophilus influenzae, Moraxella catarrhalis; conditions: Zheng et al., 1999; OLOFSSON et al., 2003; cited from earlier work
[10] = system: Peseudomonas aeruginosa, Klebsiella pneumoniae Enterobacter cloacae, and Staphylococcus aureus; conditions: Parry et al. (1976); cited from earlier work
[11] = Quantification of NAC by HPLC in nutrient solution of Leonard pots with plants (uptake by the plant); conditions: for Measured Conc of NAC in the samples collected: nutrient solution after one day with the plant

SMILES: CC(=O)N[C@@H](CS)C(=O)O [NAC, N-acetyl L-cysteine]
- cell mass of biofilms compared to the control condition ([1]; different doses of NAC (1, 2, 6 mg/mL), 14 days): reduced compared to the control condition
- cell mass of planktonic cells ([1]; different doses of NAC (1, 2, 6 mg/mL), planktonic fraction): increase in mass
- biofilm formation ([1]; doses of 1.0, 2.0 or 6.0 mg/mL): inhibited biofilm formation
- CFU/mL in biofilm vs control ([2]; 1 mg/mL NAC): lower than in the control biofilm
- reduction of number of living cells present in the biofilm ([2]; 6 mg/mL NAC): ~100%
- toxic action towards X. fastidiosa cells ([2]; in vitro, 1.0, 2.0 or 6.0 mg/mL): toxic action; also recorded: toxic to the cells of bacteria
- CFU of planktonic cells in serial dilution ([2]; planktonic cells, NAC treatments, after 3 washes): not possible to count any CFU
- lowering of EPS between control and treatment ([3]; 6 mg/ml NAC): about 45%
- total amount of EPS vs control ([3]; NAC 1, 2, 6 mg/mL): In control, the total amount of EPS was greater
- CVC symptoms after interruption of treatment [4]: symptoms were observed to be less severe; also recorded: chlorosis spots were not observed
- CVC symptoms in the leaves [4]: visible reduction of symptoms; also recorded: some points chlorosis in the leaves, but in smaller quantities; also recorded: hardly possible to see symptoms; also recorded: visibly smaller
- control of the bacterium (symptoms and number of bacterial cells in leaves) [4]: effective in controlling the bacterium
- symptoms in treated plants [4]: significant reduction of symptoms
- symptoms later than two months after interruption of treatment [4]: resurgence of symptoms
- amount of bacteria in each plant by qPCR [5]: does not appear to have been affected
- number of X. fastidiosa cells isolated from plants after treatment [6]: decrease in the number of X. fastidiosa cells; also recorded: strong decrease of bacteria
- concentration of NAC remaining in Hoagland solution ([7]; after 1 day in greenhouse): 143140 µg/mL
- concentration of NAC remaining in Hoagland solution ([7]; after 7 days in greenhouse): 63220 µg/mL
- concentration of NAC remaining in Hoagland solution ([7]; after 14 days in greenhouse): 3150 µg/mL
- plant development ([8]; 1500 mg NAC in 250 mL nutrient solution): plant development was clearly affected; also recorded: fall of leaves, wilting and visible damage to the physiological development of the plant
- plant development after interruption of treatment ([8]; 1500 mg NAC, two months in soil without treatment): remained less developed
- plant development ([8]; lower doses (120 and 600 mg) NAC): do not cause problems for plant development
- adhesion of human pathogenic bacteria in epithelial cells and surface abiotic [9]: reduce the adhesion
- efficiency regarding the adhesion of bacteria [10]: demonstrated efficiency
- absorption of the substance by the plant ([11]; 1500 mg NAC in 250 mL): absorption of the substance by the plant does not occur
- transport of NAC by the plant ([11]; measured concentrations below those expected (lower doses)): could be transported by the plant
- Measured Conc of NAC in the samples collected ([11]; total NAC 120 mg (expected 0.48 mg/mL)): 0.288 mg/mL
- Measured Conc of NAC in the samples collected ([11]; total NAC 600 mg (expected 2.4 mg/mL)): 1.98 mg/mL
- Measured Conc of NAC in the samples collected ([11]; total NAC 1500 mg (expected 6.0 mg/mL)): 6.156 mg/mL
